Assay results published in patent publication US10864238B2, “Composition containing Poria cocos peel extract for treating neurodegenerative disorders” (NeuroBo Pharmaceuticals, Inc., priority 2014, dated 2020).

Experiments:
beta-nerve growth factor = assay: NGF level measurement in nerve cell line (ELISA); format: cell-based, human; settings: 10 ug/mL; SH-SY5Y; FIG. 12
Description: NGF levels were measured in order to determine the mechanism of cognitive improvement of the Poria cocos peel extracts. SH-SY5Y cells (1×10^6 cells/well) were inoculated on 6-well culture plates and cultured in DMEM/F12 (Dulbecco's modified Eagle's medium) medium containing 10% fetal bovine serum for 48 hours. After 5 days of differentiation using DMEM/F12 medium containing 10 μM retinoic acid and 3% FBS, the cells were treated with Poria cocos peel extracts (10 or 100 ug/ml). Cells were lysed using RIPA buffer, and protein content was quantitated with BCA reagent purchased from Pierce. NGF levels were measured using a beta-nerve growth factor human enzyme-linked immunosorbent assay (ELISA) KIT purchased from Abcam.

human Tau [pS199] = assay: Phosphorylated tau in neuronal cell line (ELISA); format: cell-based; settings: 10 ug/ml; SH-SY5Y; FIG. 11
Description: Phosphorylated tau levels were measured in order to confirm the inhibitory effect of Poria cocos peel extracts on tau hyper-phosphorylation. SH-SY5Y cells (1×10^6 cells/well) were seeded in 6-well culture plates and cultured in DMEM/F12 (Dulbecco's modified Eagle's medium) medium containing 10% FBS (fetal bovine serum) for 48 hours. After 5 days of differentiation using DMEM/F12 medium containing 10 μM retinoic acid and 3% FBS, after 6 hours of treatment with the Poria cocos peel extracts (10 or 100 ug/mL), Aβ42 was treated and cultured for a total of 48 hours. After cell lysis using RIPA buffer, the protein content was quantitated with BCA reagent purchased from Pierce. Phosphorylated tau was measured using human Tau [pS199] enzyme-linked immunosorbent assay (ELISA) KIT purchased from Invitrogen.

## COc1cc2c(cc1OC)C(=O)C(CC1CCN(Cc3ccccc3)CC1)C2 (centres unmarked) [Donepezil]
beta-nerve growth factor
  NGF production: did not show NGF-related efficacy
Human Tau [pS199]
  tau phosphorylation induced by Aβ42: did not show the inhibitory effect on tau phosphorylation
